Consider 31 compounds from patent US7025999B2, “Chewing gum having prolonged sensory benefits” (Wm. Wrigley Jr. Company, priority 2001, dated 2006).

The nature of the assay: Relative sweetness of hydrophobic sweetener compounds (factor used for the Sucrose Equivalent calculation). As to conditions: Sucrose Equivalent = weight percent in the chewing gum multiplied by relative sweetness. The source says: It should be appreciated that due to the slow release of hydrophobic sweeteners from the chewing gum, it is believed that higher levels of the hydrophobic sweeteners as compared to typical water soluble sweeteners may be necessary to provide the desired level of sweetness or sweetness intensity. The amount can suitably vary depending on any number of factors, such as the desired level of sweetness and the relative sweetness intensity specific to the hydrophobic sweetener compound. As detailed below, the relative sweetness can vary depending on the type of hydrophobic sweetener compound. In an embodiment, chewing gum includes the hydrophobic sweetener compound in an amount ranging from about 50 to about 5000 Sucrose Equivalents. The Sucrose Equivalent factor is determined by multiplying the weight percent of the hydrophobic compound in the chewing gum by its relative sweetness. By way of example and not limitation, the following tables illustrate a variety of hydrophobic sweetener compounds representative of the hydrophobic sweetener compounds of Formulas I–XI, as previously discussed. The tables also indicate the relative sweetness of the hydrophobic sweetener compounds. As previously discussed, this factor can be utilized to calculate the Sucrose Equivalent calculation which relates to the amount of hydrophobic sweetener in the chewing gum.
Consider `COc1ccc(C2COc3ccccc3C2)cc1O` (stereo not shown) [Compound 1], for which the “Relative Sweetness” value is recorded as 200. As for `COc1ccc(C2Cc3ccccc3CO2)cc1O` (stereo not shown) [Compound 2], the figure is 350. For the compound `COc1ccc(C2CCc3ccccc3O2)cc1O` (stereo not shown) [Compound 3], the “Relative Sweetness” value is 350. The value for `COc1ccc(C2COc3ccccc3O2)cc1O` (stereo not shown) [Compound 4] was 450; that for `COc1ccc(C2OCc3ccccc3O2)cc1O` (stereo not shown) [Compound 5] was 3000; that for `COc1ccc(C2Oc3ccccc3CS2)cc1O` (stereo not shown) [Compound 6] was 500.

Regarding `COc1ccc(C2CSc3ccccc3O2)cc1O` (stereo not shown) [Compound 7], the “Relative Sweetness” value is given as 250. Turning to `COc1ccc(C2OCc3ccccc3S2)cc1O` (stereo not shown) [Compound 8], the “Relative Sweetness” value is 9000. As for `COc1ccc(C2COc3ccccc3S2)cc1O` (stereo not shown) [Compound 9], the figure is 2000; as for `COc1ccc(C2CCc3ccccc3S2)cc1O` (stereo not shown) [Compound 10], 200. Consider `COc1ccc(C2SCc3ccccc3S2)cc1O` (stereo not shown) [Compound 11], for which the “Relative Sweetness” value was 1000. `COc1ccc(C2CSc3ccccc3S2)cc1O` (stereo not shown) [Compound 12]: the “Relative Sweetness” value is given as 450. Regarding `COc1ccc(C2Sc3ccccc3S2)cc1O` [Compound 13], the “Relative Sweetness” value is given as 200. The value for `COc1ccc(C2Oc3ccccc3S2)cc1O` (stereo not shown) [Compound 14] was 300; that for `COc1ccc(C2Oc3ccccc3O2)cc1O` [Compound 15] was 150; that for `COc1ccc(C2OCc3ccccc3S2)cc1S` (stereo not shown) [Compound 16] was 50.

As for `Oc1ccc(C2OCc3ccccc3S2)cc1O` (stereo not shown) [Compound 17], the “Relative Sweetness” value is listed as 200. For `Oc1cccc(C2OCc3ccccc3S2)c1` (stereo not shown) [Compound 18], the “Relative Sweetness” value is reported as 100. As for `COc1ccc(C2CS(=O)(=O)c3ccccc3O2)cc1O` (stereo not shown) [Compound 19], the “Relative Sweetness” value is 50. Turning to `COc1ccc(C2CSc3cc(O)ccc3O2)cc1O` (stereo not shown) [Compound 20], the “Relative Sweetness” value was 500. For the compound `COc1ccc(C(=O)c2ccccc2C(=O)O)cc1O` [Compound 21], the “Relative Sweetness” value was 250.

Take `O=C(O)c1ccccc1C(=O)c1ccc(O)c(O)c1` [Compound 22]: the “Relative Sweetness” value was 100.

Regarding `COc1ccc([S+]([O-])c2ccccc2C(=O)O)cc1` (stereo not shown) [Compound 23], the “Relative Sweetness” value was 50. Turning to `COc1ccc(CCC(=O)c2c(O)cc(O)cc2O)cc1O` [Compound 24], the “Relative Sweetness” value is 665. As for `COc1ccc(CCC(=O)c2cccc(C(=O)O)c2)cc1O` [Compound 25], the figure is 80; as for `COc1ccc(OCc2ccccc2C(=O)O)cc1O` [Compound 26], 10; as for `COc1ccc(CCc2ccccc2)cc1O` [Compound 27], 300.

Consider `O=C(O)c1ccccc1C(=O)c1ccc(O)cc1` [Compound 30], for which the “Relative Sweetness” value is on record as 200.

Regarding `COc1ccc(C(=O)/C=C/C(=O)O)cc1` [Compound 33], the “Relative Sweetness” value was 50.

Regarding `COc1ccc(OC(=O)c2ccccc2C(=O)O)cc1` [Compound 34], the “Relative Sweetness” value is 10. As for `COc1ccc(C(=O)c2ccccc2C(=O)[O-])cc1.[Na+]` [Compound 36], the figure is 150.
